Results: paper PMC11721293 (JCI Insight, 2025)
Where “and” joins values, the source holds several entries; their conditions need not be identical. Identical values can stand only once.

Key:
[1] = system: SARS-CoV-2-nLuc in cells overexpressing W106R mutant FTase; assay type: cell-based
omicron BA4.6 variant = assay: Drug combination, omicron BA4.6 in VeroE6, qRT-PCR; assay type: cell-based, SARS-CoV-2; details: replicates
[2] = system: SARS-CoV-2-nLuc in cells overexpressing WT FTase; assay: microbe, parasite or virus in culture; assay type: cell-based; details: for luciferase activity (relative): WT
SARS-CoV-2-nLUC [3] = assay: microbe, parasite or virus in culture; assay type: cell-based; details: GGTI vs DMSO; replicates
SARS-CoV-2-nLUC [4] = assay type: cell-based

NC(=O)N1CCC(CC(=O)N2CCC([C@H]3c4ncc(Br)cc4CCc4cc(Cl)cc(Br)c43)CC2)CC1 [LNF, lonafarnib]
fold less effective in cells expressing mutant FTase vs WT [1]: ~2 fold | IC50 ([1]; read-out: Mut IC50): 2200 nM | S3E viral level relative to LNF 0/ NRTV 0 (omicron BA4.6 variant; LNF 1/ NRTV 0): 69.1766 and 49.5863 and 50.5202 | S3D viral level relative to LNF 0/ RDV 0 (omicron BA4.6 variant; LNF 1/ RDV 0): 32.8373 and 32.7511 and 35.1123 | S3E viral level relative to LNF 0/ NRTV 0 (omicron BA4.6 variant; LNF 10/ NRTV 0): 2.995 and 4.305 and 4.101 | S3D viral level relative to LNF 0/ RDV 0 (omicron BA4.6 variant; LNF 10/ RDV 0): 2.77 and 3.103 and 2.149 | IC50 ([2]; Severe acute respiratory syndrome coronavirus 2, Vero C1008, VeroE6 transfected with WT FNTB, 24 h): 1100 nM | luciferase activity (relative) ([2]; Log[LNF} mM (printed) 0.09691): 63.7112 and 63.9819 and 49.739 and 50.5313 | luciferase activity (relative) ([2]; Log[LNF} mM (printed) 0.39794): 34.2371 and 34.2326 and 46.1621 and 47.4504 | luciferase activity (relative) ([2]; Log[LNF} mM (printed) 0.69897): 15.3696 and 15.2721 and 16.4684 and 16.5029 | luciferase activity (relative) ([2]; Log[LNF} mM (printed) 1): 6.188 and 5.457 and 5.008 and 4.944 | luciferase activity (relative) ([2]; Log[LNF} mM (printed) -0.20412): 54.7411 and 54.7908 and 56.706 and 57.079 | luciferase activity (relative) ([2]; Log[LNF} mM (printed) -0.50515): 62.6012 and 61.9491 and 68.0615 and 68.2295 | luciferase activity (relative) ([2]; Log[LNF} mM (printed) -0.80618): 99.8257 and 98.9 and 84.2901 and 84.2134 | luciferase activity (relative) ([2]; Log[LNF} mM (printed) -1.10721): 97.017 and 96.4383 and 93.6225 and 92.4394

CC(C)(C)[C@H](NC(=O)C(F)(F)F)C(=O)N1C[C@H]2[C@@H]([C@H]1C(=O)N[C@H](C#N)C[C@@H]1CCNC1=O)C2(C)C [NRTV, nirmatrelvir]
S3E viral level relative to LNF 0/ NRTV 0 (omicron BA4.6 variant; LNF 0/ NRTV 0.5): 47.9329 and 37.1942 and 53.3183 | S3E viral level relative to LNF 0/ NRTV 0 (omicron BA4.6 variant; LNF 0/ NRTV 5): 1.354 and 1.072 and 1.497

Cc1nc[nH]c1CN1CCN(C(=O)N[C@@H](CC(C)C)C(=O)O)[C@@H](Cc2ccccc2)C1=O [GGTI2418]
signal relative to DMSO (sheet S7A) (SARS-CoV-2-nLUC [3]): 90.3685 and 93.0121 and 91.627 and 90.3081

CN(C)C(=O)COC(=O)Cc1ccc(OC(=O)c2ccc(NC(=N)N)cc2)cc1 [camostat]
infection signal (sheet S4F) (SARS-CoV-2-nLUC [4]): 74.3368 and 81.9164 and 86.4071 and 85.3028 and 90.7155 and 94.6132 and 81.833 and 79.6415
